From US8080529B2, “Macrolides with anti-inflammatory activity” (Glaxo Group Limited, priority 2005, dated 2011)

System: PMA induced ear oedema
Test: Phorbol 12-myristate 13-acetate induced ear oedema in CD1 mice
Format: in vivo
Experimental: Male CD1 mice (Iffa Credo, France) weighing 30-40 g were randomly grouped (n=6 in test group of which the untreated ear served as negative control; 6 in positive control group which also served as their own negative control group). Test compounds, as well as vehicle (Trans-phase Delivery System, containing benzyl alcohol 10%, acetone 40% and isopropanol 50%) (all from Kemika, Croatia), were administered topically to the internal surface of the left ear thirty minutes prior to administration of phorbol 12-myristate 13-acetate (PMA) (Sigma, USA). Test compounds were administered at a dose of 100, 250 or 500 μg/15 μL/ear. Thirty minutes later, 0.01% PMA solution in acetone was applied topically to the inner surface of the left ear of each animal in a volume of 12 μL/ear. During the treatment and challenge (stimulation), animals were anaesthetized with anaesthesia by inhalation. Six hours following challenge, animals were euthanized by intraperitoneal thiopental injection (PLIVA, Croatia). For assessing the auricular oedema, 8 mm discs were cut out of left and right auricular pinna and weighed. The degree of oedema was calculated by subtracting the weight of 8 mm disc of the untreated ear from that of the treated contralateral ear. The inhibition of oedema in the treated animals, presented in the Table 8, is expressed as percentage compared to control mice (0%).

For `CCC1OC(=O)C(C)C(OC2CC(C)(OC)C(OC(=O)CCN(CC)CC)C(C)O2)C(C)C(OC2OC(C)CC(N(C)C)C2O)C(C)(OC)CC(C)C(=O)NC(C)C(O)C1(C)O` (stereo not drawn) [Example 8, 4″-O-(3-Diethylamino-propionyl)-6-O-methyl-9a-aza-9a-homoerythromycin A], the “Oedema (% inhibition)” value (100 μg/ear topical) was 54%, the “Oedema (% inhibition)” value (250 μg/ear topical) was 74% and the “Oedema (% inhibition)” value (500 μg/ear topical) was 94%.
In the case of `CC[C@H]1OC(=O)[C@H](C)[C@@H](O[C@H]2C[C@@](C)(OC)[C@@H](O)[C@H](C)O2)[C@H](C)[C@@H](O[C@@H]2O[C@H](C)C[C@H](N(C)C)[C@H]2O)[C@](C)(O)C[C@@H](C)CN(C)[C@H](C)[C@@H](O)[C@]1(C)O` [azithromycin, reference compound], the “Oedema (% inhibition)” value (100 μg/ear topical) is reported as 0%, the “Oedema (% inhibition)” value (250 μg/ear topical) is reported as 83% and the “Oedema (% inhibition)” value (500 μg/ear topical) is reported as 90%.
